According to patent publication US6797721B2, “Phorboxazole derivatives for treating cancer” (Parker Hughes Institute, priority 1999, dated 2004):

Key:
ARH77 (multiple myeloma) = assay: MTT cytotoxicity assay, ARH77; assay type: cell-based; conditions: Homo sapiens, ARH-77
leukemia NALM-6 cells = assay: Mitochondrial transmembrane potential assay (DiIC1(5) staining); assay type: cell-based, human; conditions: 2.5 nM, 5 nM or 10 nM, 72 hours
Experimental: FIG. 2 are graphs showing the effect of synthetic phorboxazole A and phorboxazole A derivatives on the mitochondrial transmembrane potentials of leukemia NALM-6 cells.
Cells were incubated with 2.5 nM, 5 nM or 10 nM of phorboxazole A, 33-O-methyl-phorboxazole A or 45,46-dehydrobromo-phorboxazole A for 72 hours, stained with DiICl (5) to assess the mitochondrial membrane potential (Δψm) and then analyzed with a cell sorter equipped with a HeNe laser.

[1] = tested on: BT-20 breast cancer cells; assay: In vitro adhesion assay to ECM proteins, BT-20; assay type: cell-based, human; conditions: laminin-, fibronectin-, and collagen-coated plates, 0.1 μM to 1 μM for 24 hours
Experimental: (§1) Human brain tumor cell lines U-373 MG and breast cancer cell lines BT-20 and MDA-MB-231 were obtained from American Type Culture Collection (ATCC, Rockville, Md.) and maintained in liquid culture using DMEM supplemented with 10% fetal bovine serum and antibiotics. Fibroblast conditioned medium was used as a source of chemoattractant in vitro invasion assays. Conditioned medium was prepared as described in the literature (Albini et.al., 1987, Cancer Res., 47:3239-3245).
(§2) In vitro adhesion assays were performed to (a) study the baseline adhesive properties of various breast cancer and glioblastoma cell lines and (b) evaluate the effects of phorboxazole A derivatives on the adhesive properties of breast cancer and glioblastoma cells. The plates for the adhesion assays were precoated with the extracellular matrix proteins laminin, fibronectin, or type IV collagen (each at a final concentration of 1 μg/ml in PBS) overnight at 4° C. and dried. On the day of the experiment, the wells were rehydrated and blocked with 10% bovine serum albumin in PBS for 1 hour at room temperature and used for the adhesion assays, as described below.
(§3) The effects of synthetic phorboxazole A and specific derivatives on adhesion of breast cancer and glioblastoma cells was studied. Exponentially growing cells in DMEM were incubated with phorboxazole compounds or genistein as a control at concentrations ranging from 0.1 μM to 1 μM for 24 hours in a humidified 5% CO2 atmosphere. DMSO (0.1%) was included as a vehicle control. After treatment, cells were detached from the flasks with 0.05% trypsin (Life Technologies) resuspended in DMEM, incubated at 37° C. for 2 hours to allow them to recover from the trypsinization stress and examined for their ability to adhere to plates precoated with ECM proteins.
(§4) In adhesion assays, cells were centrifuged, washed twice with serum-free DMEM, counted and resuspended in serum-free DMEM to a final concentration of 2.5×10^5 cells/ml. […] The adherent fraction was quantitated using MTT (3-[4,5-dimethylthiazol-2-yl]-2,5-diphenyltetrazolium bromide) assays. […] The absorbance of each well was measured in a microplate reader (Labsystems) at 540 nm and a reference wavelength of 690 nm.
(§5) To translate the OD540 values into the number of cells in each well, the OD540 values were compared to those on standard OD540-versus-cell number curves generated for each cell line. The adherent fractions of cells treated with phorboxazole A derivatives were compared to those of DMSO-treated control cells and the percent inhibition of adhesion was determined using the formula: [formula]
(§6) Each treatment condition was evaluated in duplicate in 3 independent experiments. The IC50 values were calculated by non-linear regression analysis. […]

[2] = tested on: U266BL (multiple myeloma); assay: MTT cytotoxicity assay, U266BL; assay type: cell-based; conditions: Homo sapiens
Experimental: The cytotoxicity assay of synthetic Phorboxazole A and various derivative compounds against human tumor cells was performed using the MTT (3-[4,5-dimethylthiazol-2-yl]-2,5-diphenyl tetrazolium bromide) assay (Boehringer Mannheim Corp., Indianapolis, Ind.). Briefly, exponentially growing brain tumor cells were seeded into a 96-well plate at a density of 2.5×10^4 cells/well and incubated for 36 hours at 37° C. prior to drug exposure. On the day of treatment, culture medium was carefully aspirated from the wells and replaced with fresh medium containing the various phorboxazole A derivative compounds as well as the tyrosine kinase inhibitory isoflavone genistein (GEN) at concentrations ranging from 0.1 to 250 μM. Triplicate wells were used for each treatment.
The cells were incubated with the various compounds for 24-36 hours at 37° C. in a humidified 5% CO2 atmosphere. To each well, 10 μl of MTT (0.5 mg/ml final concentration) was added and the plates were incubated at 37° C. for 4 hours to allow MTT to form formazan crystals by reacting with metabolically active cells. […] The absorbance of each well was measured in a microplate reader (Labsystems) at 540 nm and a reference wavelength of 690 nm. […] The percent survival was calculated using the formula: [formula]
The IC50 values were calculated by non-linear regression analysis. […]

[3] = tested on: MDA-MB-231 breast cancer cells; assay: In vitro adhesion assay to ECM proteins, MDA-MB-231; assay type: cell-based, human; conditions: laminin-, fibronectin-, and collagen-coated plates, 0.1 μM to 1 μM for 24 hours
Experimental: as §1, §2, §3, §4, §5, §6

PC3 (prostate cancer) = assay: MTT cytotoxicity assay, PC3; assay type: cell-based; conditions: Homo sapiens

C=C1C[C@@H]2C[C@@H]3C[C@@H](O)C[C@@H](O3)c3coc(n3)/C=C/C[C@H]3O[C@@H](/C(C)=C/c4coc(C[C@]5(O)C[C@H](OC)C[C@H]([C@H](O)/C=C(C)/C=C/[C@@H](C/C=C/Br)OC)O5)n4)[C@H](C)[C@@H](OC(=O)/C=C\C[C@@H](C1)O2)[C@H]3C [Compound 1, Phorboxazole A]
IC50 (ARH77 (multiple myeloma)): 7.5 nM
Depolarized mitochondria (mitochondrial membrane potential) (leukemia NALM-6 cells): progressive increase in depolarized mitochondria
Inhibition of cell adhesion [1]: active
IC50 [2]: 14.9 nM
Inhibition of cell adhesion [3]: active
IC50 (PC3 (prostate cancer)): 14.2 nM
